# Experimental data: publication PMC7224190, “Pharmacological inhibition of PRMT7 links arginine monomethylation to the cellular stress response” (Nature Communications, 2020)
# Columns and labels:
# Test in all cases: biochemical
# Parameters in all cases: radiometric methyltransferase assay with tritiated SAM, IC50
# PRMT3 = PRMT3 (Homo sapiens, UniProt O60678)
# Procedure: (§1) The methyltransferase selectivity was assessed at two compound concentrations of 1 and 10 μM by radiometric assays using tritiated-SAM. For methyltransferases: MLL1, MLL3, EZH1 (PRC2), and EZH2 (PRC2), G9a, GLP, SUV39H1, SUV39H2, SUV420H1, SUV420H2, SETD2, SETD8, SETDB1, SETD7, PRMT1, PRMT3, PRMT4, PRMT5/ MEP50 complex, PRMT6, PRMT7, PRMT8, PRMT9, PRDM9, SMYD2, SMYD3, DNMT1, and BCDIN3D the incorporation of a tritium-labeled methyl group into biotinylated substrate was monitored using scintillation proximity assay (SPA). Briefly, a 10 μL reaction containing ^3H-SAM and substrate at concentrations close to the apparent Km values for each enzyme (balanced conditions) was prepared. The reactions were quenched with 10 μL of 7.5 M guanidine hydrochloride; 180 μL of 20 mM Tris buffer (pH 8.0) were added, and the mixture was transferred to a 96-well FlashPlate and incubated for 1 h. The counts per minute (CPM) was measured on a TopCount plate reader. The CPM in the absence of compound or enzyme was defined as 100% activity and background (0%), respectively, for each dataset[74]–[76]. Selectivity of SGC8158 against 342 kinases was evaluated in a kinase panel TR-FRET assay at 1 and 0.1 μM compound in duplicates as described before. Briefly, tagged kinases were incubated with compound and staurosporine-based fluorescent probe where the binding was detected using Tb conjugated anti-tag antibody energy transfer to the probe. Excitation wavelength was 337 nm and fluorescent emission signal was measured for Tb (486 nm) and fluorescent probe (BODIPY, 515 nm). Specific and non-specific binding was determined in the absence and presence of unlabeled staurosporine. Assays using biotinylated H2B (23–37) as a substrate were performed in buffer (20 mM Tris–HCl, pH 8.5, 0.01% Tween-20, and 5 mM DTT) containing 5 nM PRMT7, 1.1 µM ^3H-SAM (Cat.# NET155V250UC; Perkin Elmer; www.perkinelmer.com) and 0.3 µM H2B (23–37). The reaction mixtures were incubated for 60 min at 23 °C. To stop the enzymatic reactions, 10 µL of 7.5 M guanidine hydrochloride was added, followed by 180 µL of buffer (20 mM Tris, pH 8.0), mixed and then transferred to a 96-well FlashPlate (Cat.# SMP103; Perkin Elmer; www.perkinelmer.com). After mixing, the reaction mixtures in Flash plates were incubated for 1 h and the CPM were measured using Topcount plate reader (Perkin Elmer, www.perkinelmer.com). The CPM counts in the absence of compound for each dataset were defined as 100% activity. In the absence of the enzyme, the CPM counts in each dataset were defined as background (0%). The IC50 values were determined using GraphPad Prism 7 software. For the kinetic analysis of HSPA8 methylation by PRMT7, the assay mixture contained 20 mM Tris–HCl, pH 8.5, 0.01% Tween-20, and 5 mM dithiothreitol (DTT), 1 mM MgCl2, 1 mM ATP where indicated, 250 nM PRMT7, fixed concentration (20 µM) of SAM, various concentrations (up to 40 µM) of HSPA8; or fixed concentration (10 µM) of HSPA8 with different concentrations of SAM (up to 20 µM). […] To determine the mode of action, the experiments were performed in the presence of fixed biotinylated H2B peptide (residues 23–37) or HSPA8 substrate concentration and increasing SAM concentration or at fixed concentration of SAM and varying concentration of the substrate. Twenty µL of reaction mixtures were incubated at 23 °C for 60 min. To stop reactions, 100 µL of 10% trichloroacetic acid (TCA) was added, mixed and transferred to filter-plates (Millipore; cat.# MSFBN6B10; www.millipore.com). Plates were centrifuged at 930 × g (Allegra X-15R—Beckman Coulter, Inc.) for 2 min followed by two additional 10% TCA washes and one ethanol wash followed by centrifugation. Plates were dried and 30 µL MicroScint-O (
# PRMT5-MEP50 = PRMT5-MEP50 (Homo sapiens, UniProt O14744)
# Chain of PRMT5-MEP50 (O14744 whole entry): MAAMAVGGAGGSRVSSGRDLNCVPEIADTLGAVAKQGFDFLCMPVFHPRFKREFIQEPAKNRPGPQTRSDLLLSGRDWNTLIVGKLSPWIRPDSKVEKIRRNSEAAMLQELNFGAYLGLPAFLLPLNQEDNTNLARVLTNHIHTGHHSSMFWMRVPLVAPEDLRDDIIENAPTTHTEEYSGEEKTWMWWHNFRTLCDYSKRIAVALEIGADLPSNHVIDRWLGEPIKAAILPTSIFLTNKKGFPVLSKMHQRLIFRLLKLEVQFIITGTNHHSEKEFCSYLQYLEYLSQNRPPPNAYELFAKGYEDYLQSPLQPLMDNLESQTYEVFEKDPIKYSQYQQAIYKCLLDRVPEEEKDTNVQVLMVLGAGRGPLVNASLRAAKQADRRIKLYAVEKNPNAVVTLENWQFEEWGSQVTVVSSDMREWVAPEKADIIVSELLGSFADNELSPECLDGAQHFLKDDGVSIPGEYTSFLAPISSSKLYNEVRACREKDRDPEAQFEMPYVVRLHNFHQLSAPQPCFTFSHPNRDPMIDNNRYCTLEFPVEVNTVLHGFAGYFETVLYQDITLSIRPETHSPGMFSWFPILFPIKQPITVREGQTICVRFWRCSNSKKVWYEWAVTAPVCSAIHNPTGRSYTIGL
# Chain of PRMT5-MEP50 (Q9BQA1 whole entry partner): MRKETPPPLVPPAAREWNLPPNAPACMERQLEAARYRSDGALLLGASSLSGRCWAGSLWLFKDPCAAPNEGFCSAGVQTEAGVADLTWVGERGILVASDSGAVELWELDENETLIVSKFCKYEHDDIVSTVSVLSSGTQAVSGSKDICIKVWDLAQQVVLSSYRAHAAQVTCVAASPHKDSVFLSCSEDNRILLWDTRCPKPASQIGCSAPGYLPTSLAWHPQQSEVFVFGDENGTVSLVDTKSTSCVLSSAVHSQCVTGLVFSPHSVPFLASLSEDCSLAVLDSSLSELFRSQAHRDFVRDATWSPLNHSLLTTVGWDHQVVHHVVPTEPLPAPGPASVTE
# Procedure: as §1
# PRMT6 = PRMT6 (Homo sapiens, UniProt Q96LA8)
# Chain of PRMT6 (Q96LA8 whole entry): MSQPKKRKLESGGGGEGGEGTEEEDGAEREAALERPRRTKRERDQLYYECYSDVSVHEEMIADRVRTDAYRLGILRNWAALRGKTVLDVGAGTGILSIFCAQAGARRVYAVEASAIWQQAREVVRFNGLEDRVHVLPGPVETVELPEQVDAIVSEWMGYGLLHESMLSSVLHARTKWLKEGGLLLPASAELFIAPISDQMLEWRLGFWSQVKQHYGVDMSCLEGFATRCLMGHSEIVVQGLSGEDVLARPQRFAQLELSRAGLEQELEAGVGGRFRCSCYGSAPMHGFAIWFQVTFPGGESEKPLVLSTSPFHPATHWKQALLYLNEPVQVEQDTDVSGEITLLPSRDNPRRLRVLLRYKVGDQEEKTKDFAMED
# Procedure: as §1
# PRMT8 = PRMT8 (Homo sapiens, UniProt Q9NR22)
# Chain of PRMT8 (Q9NR22 whole entry): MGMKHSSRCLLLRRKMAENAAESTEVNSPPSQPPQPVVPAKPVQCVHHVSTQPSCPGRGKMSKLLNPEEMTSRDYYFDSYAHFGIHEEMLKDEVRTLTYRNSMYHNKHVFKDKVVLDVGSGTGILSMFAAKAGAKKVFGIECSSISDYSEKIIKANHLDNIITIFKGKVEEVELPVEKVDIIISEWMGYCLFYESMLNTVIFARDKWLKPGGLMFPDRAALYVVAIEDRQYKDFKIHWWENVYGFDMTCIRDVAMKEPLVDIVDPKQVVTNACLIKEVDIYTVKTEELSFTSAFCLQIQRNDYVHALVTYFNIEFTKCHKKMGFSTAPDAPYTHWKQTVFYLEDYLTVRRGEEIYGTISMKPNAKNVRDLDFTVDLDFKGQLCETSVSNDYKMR
# Procedure: as §1
# PRMT9 = target: T1, PRMT9 (Homo sapiens, UniProt Q6P2P2)
# T1 sequence (Q6P2P2 1-845): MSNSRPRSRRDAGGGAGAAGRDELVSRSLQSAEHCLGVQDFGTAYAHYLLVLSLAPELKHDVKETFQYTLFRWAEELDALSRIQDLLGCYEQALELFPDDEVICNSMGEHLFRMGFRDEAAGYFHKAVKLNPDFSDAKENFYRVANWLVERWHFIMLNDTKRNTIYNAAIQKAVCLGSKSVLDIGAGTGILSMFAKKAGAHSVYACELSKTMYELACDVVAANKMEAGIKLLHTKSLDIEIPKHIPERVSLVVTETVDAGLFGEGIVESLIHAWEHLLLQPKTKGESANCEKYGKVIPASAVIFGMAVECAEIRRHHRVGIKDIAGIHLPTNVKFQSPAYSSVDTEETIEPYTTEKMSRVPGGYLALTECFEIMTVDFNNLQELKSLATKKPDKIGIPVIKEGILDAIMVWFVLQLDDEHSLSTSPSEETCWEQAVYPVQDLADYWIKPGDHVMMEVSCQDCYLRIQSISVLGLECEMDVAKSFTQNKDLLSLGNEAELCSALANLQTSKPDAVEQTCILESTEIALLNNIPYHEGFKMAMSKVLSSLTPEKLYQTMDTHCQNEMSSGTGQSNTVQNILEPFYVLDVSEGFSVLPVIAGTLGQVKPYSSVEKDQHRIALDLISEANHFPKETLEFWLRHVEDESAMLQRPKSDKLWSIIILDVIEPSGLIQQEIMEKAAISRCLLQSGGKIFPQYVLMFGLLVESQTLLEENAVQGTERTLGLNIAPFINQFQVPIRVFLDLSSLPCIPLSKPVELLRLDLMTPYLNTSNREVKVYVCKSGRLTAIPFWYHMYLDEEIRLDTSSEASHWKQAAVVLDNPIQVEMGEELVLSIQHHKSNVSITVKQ
# Procedure: as §1
# Chain of PRMT3 (O60678 whole entry): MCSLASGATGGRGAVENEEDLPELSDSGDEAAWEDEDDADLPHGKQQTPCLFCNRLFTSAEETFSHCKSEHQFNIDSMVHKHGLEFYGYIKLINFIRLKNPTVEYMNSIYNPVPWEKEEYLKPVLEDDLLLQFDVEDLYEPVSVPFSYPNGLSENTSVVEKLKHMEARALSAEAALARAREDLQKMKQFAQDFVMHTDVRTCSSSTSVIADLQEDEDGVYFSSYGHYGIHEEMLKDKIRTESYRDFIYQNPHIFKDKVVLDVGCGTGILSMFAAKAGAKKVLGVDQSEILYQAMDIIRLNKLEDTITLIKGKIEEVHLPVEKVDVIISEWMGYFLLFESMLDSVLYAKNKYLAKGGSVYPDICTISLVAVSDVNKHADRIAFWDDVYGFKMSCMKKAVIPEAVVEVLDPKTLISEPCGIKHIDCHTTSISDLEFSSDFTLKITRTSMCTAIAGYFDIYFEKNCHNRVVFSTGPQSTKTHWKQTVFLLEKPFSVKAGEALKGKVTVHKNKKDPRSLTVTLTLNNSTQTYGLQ
smiles,measurement,setting,value
Nc1ncnc2c1ncn2[C@@H]1O[C@H](CSCCCNCc2cccc(-c3ccc(Cl)cc3)c2)[C@@H](O)[C@H]1O [SGC8172],IC50,PRMT3,0.269 µM
same,IC50,PRMT5-MEP50,0.044 µM
same,IC50,PRMT6,~1.2 µM
same,IC50,PRMT8,~1.5 µM
same,IC50,PRMT9,0.138 µM
